Laboratory results taken from the NIST ThermoML archive (doi:10.1016/j.jct.2017.07.016).
Numbers after ± are expanded uncertainties.

Assay: xn = mol fraction of the nth substance listed
Settings: 96.7 kPa, Liquid; for viscosity: Capillary tube (Ostwald / Ubbelohde) method; for mass density: Vibrating tube method

CCCCCCn1cc[n+](C)c1.[Cl-] [1-hexyl-3-methylimidazolium chloride] + CN(C)C=O
Settings | mass density [kg/m3] | viscosity [mPa·s]
303.15 K, x1 = 0.134 | 974.15 ± 2.1 | 2.479 ± 0.39
303.15 K, x1 = 0.265 | 995.06 ± 2.1 | 8.757 ± 1.4
303.15 K, x1 = 0.352 | 1004.26 ± 2.1 | 20.21 ± 3.1
303.15 K, x1 = 0.457 | 1013.06 ± 2.1 | 47.11 ± 7.5
303.15 K, x1 = 0.591 | 1021.21 ± 2.1 | 158.5 ± 25
303.15 K, x1 = 0.764 | 1029.04 ± 2.2 | 666.71 ± 110
303.15 K, x1 = 0.871 | 1032.74 ± 2.2 | 2341.7 ± 390
303.15 K, x1 = 1 | 1036.07 ± 2.2 | 5718.5 ± 960
308.15 K, x1 = 0.134 | 970.01 ± 2.1 | 2.265 ± 0.35
308.15 K, x1 = 0.265 | 991.32 ± 2.1 | 7.582 ± 1.2
308.15 K, x1 = 0.352 | 1000.71 ± 2.1 | 16.69 ± 2.6
308.15 K, x1 = 0.457 | 1009.56 ± 2.1 | 38 ± 6
308.15 K, x1 = 0.591 | 1018.02 ± 2.1 | 120.91 ± 19
308.15 K, x1 = 0.764 | 1026.03 ± 2.2 | 466.32 ± 74
308.15 K, x1 = 0.871 | 1029.81 ± 2.2 | 1478.3 ± 240
308.15 K, x1 = 1 | 1033.22 ± 2.2 | 3430.8 ± 560
313.15 K, x1 = 0.134 | 965.87 ± 2.1 | 2.075 ± 0.32
313.15 K, x1 = 0.265 | 987.59 ± 2.1 | 6.651 ± 1
313.15 K, x1 = 0.352 | 997.11 ± 2.1 | 14.24 ± 2.2
313.15 K, x1 = 0.457 | 1006.09 ± 2.1 | 30.89 ± 4.8
313.15 K, x1 = 0.591 | 1014.86 ± 2.1 | 92.58 ± 15
313.15 K, x1 = 0.764 | 1023.06 ± 2.1 | 333.82 ± 52
313.15 K, x1 = 0.871 | 1026.9 ± 2.2 | 1002.9 ± 160
313.15 K, x1 = 1 | 1030.38 ± 2.2 | 2146.1 ± 350
318.15 K, x1 = 0.134 | 961.73 ± 2.1 | 1.962 ± 0.3
318.15 K, x1 = 0.265 | 983.87 ± 2.1 | 5.854 ± 0.9
318.15 K, x1 = 0.352 | 993.45 ± 2.1 | 12.13 ± 1.9
318.15 K, x1 = 0.457 | 1002.63 ± 2.1 | 25.38 ± 4
318.15 K, x1 = 0.591 | 1011.71 ± 2.1 | 72.08 ± 11
318.15 K, x1 = 0.764 | 1020.1 ± 2.1 | 241.58 ± 38
318.15 K, x1 = 0.871 | 1023.98 ± 2.2 | 685.17 ± 110
318.15 K, x1 = 1 | 1027.56 ± 2.2 | 1390.4 ± 220
323.15 K, x1 = 0.134 | 957.59 ± 2.1 | 1.797 ± 0.28
323.15 K, x1 = 0.265 | 980.14 ± 2.1 | 5.212 ± 0.8
323.15 K, x1 = 0.352 | 989.87 ± 2 | 10.45 ± 1.6
323.15 K, x1 = 0.457 | 999.19 ± 2.1 | 21.15 ± 3.3
323.15 K, x1 = 0.591 | 1008.57 ± 2.1 | 57.17 ± 8.8
323.15 K, x1 = 0.764 | 1017.14 ± 2.1 | 178.79 ± 28
323.15 K, x1 = 0.871 | 1021.09 ± 2.2 | 479.12 ± 75
323.15 K, x1 = 1 | 1024.75 ± 2.2 | 928.1 ± 150
328.15 K, x1 = 0.134 | – | 1.656 ± 0.26
328.15 K, x1 = 0.265 | – | 4.647 ± 0.71
328.15 K, x1 = 0.352 | – | 9.067 ± 1.4
328.15 K, x1 = 0.457 | – | 17.82 ± 2.8
328.15 K, x1 = 0.591 | – | 45.82 ± 7.1
328.15 K, x1 = 0.764 | – | 135.89 ± 21
328.15 K, x1 = 0.871 | – | 344.77 ± 54
328.15 K, x1 = 1 | – | 638.79 ± 99
